Reference: patent publication US20230263822A1, “MODULATION OF FACTOR 11 EXPRESSION” (Ionis Pharmaceuticals, Inc., priority 2008, published 2023)
Strand notation (5' to 3'): a small letter for the sugar, then the base; units joined by * are phosphorothioate-linked, units joined directly phosphodiester-linked; [ ] holds rarer units or linkages, { } end groups; capitals alone tell only the bases. e = 2'-O-(2-methoxyethyl) (MOE); [5mC] = 5-methylcytosine; d = 2'-deoxy (DNA)

Assay: Hematology assays in cynomolgus monkeys (Example 46)
Type: in vivo
Procedure: Groups, each consisting of two male and two female monkeys, were injected subcutaneously with 25 mg/kg of ISIS 416850, ISIS 449709, ISIS 445522, ISIS 449710, ISIS 449707, ISIS 449711, ISIS 449708, 416858, and ISIS 445531. Antisense oligonucleotide was administered to the monkeys at 25 mg/kg three times per week for week 1 and 25 mg/kg twice per week for weeks 2 to 8. A control group, consisting of two male and two female monkeys was injected subcutaneously with PBS according to the same dosing regimen. Body weights were taken 14 days and 7 days before the start of treatment and were then measured weekly throughout the treatment period. Blood samples were collected 14 days and 5 days before the start of treatment and subsequently several times during the dosing regimen for PT and aPTT measurements, and measurement of various hematologic factors. On day 55, the monkeys were euthanized by exsanguination while under deep anesthesia, and organs harvested for further analysis.

For “ISIS 449709: 3-8-3, 4-8-4, 2-10-2, 3-10-3 or 4-10-4 MOE microwalk gapmer (Table 46) (antisense eG*e[5mC]*eA*e[5mC]*dA*dG*dT*dT*dT*d[5mC]*dT*dG*dG*d[5mC]*eA*eG*eG*e[5mC])”, the HCT (Day 17) was 43%, the MCH (Day 17) was 22.5 pg and the MCHC (Day 17) was 30.7 g/dL. The MCV (Day 17) was 73 fL, the RBC count (Day 17) was 5.9e+06 µL⁻¹ and the WBC count (Day 17) was 11000 µL⁻¹. It also gave a hemoglobin content (Day 17) of 13.2 g/dL, a monocytes (Day 17) of 3.0% and a neutrophils (Day 17) of 89%. For the same substance, the platelet count (Day 17) was 449 ×100/μL, the HCT (Day 31) was 42% and the MCH (Day 31) was 22.2 pg. For the same substance, the MCHC (Day 31) was 30.7 g/dL, the MCV (Day 31) was 73 fL and the RBC count (Day 31) was 5.9e+06 µL⁻¹. The WBC count (Day 31) was 11000 µL⁻¹, the hemoglobin content (Day 31) was 13.1 g/dL and the monocytes (Day 31) was 2.8%. For the same substance, the neutrophils (Day 31) was 81%, the platelet count (Day 31) was 471 ×100/μL and the HCT (Day 45) was 41%. It also gave an MCH (Day 45) of 21.0 pg, an MCHC (Day 45) of 31.1 g/dL and an MCV (Day 45) of 71 fL. It also gave an RBC count (Day 45) of 5.7e+06 µL⁻¹, a WBC count (Day 45) of 11000 µL⁻¹ and a hemoglobin content (Day 45) of 12.6 g/dL. For the same substance, the monocytes (Day 45) was 3.6%, the neutrophils (Day 45) was 77% and the platelet count (Day 45) was 418 ×100/μL. The HCT (Day 55) was 40%, the MCH (Day 55) was 22.0 pg and the MCHC (Day 55) was 31.2 g/dL. The MCV (Day 55) was 71 fL, the RBC count (Day 55) was 5.7e+06 µL⁻¹ and the WBC count (Day 55) was 10000 µL⁻¹. The hemoglobin content (Day 55) was 12.5 g/dL, the monocytes (Day 55) was 3.4% and the neutrophils (Day 55) was 115%. The platelet count (Day 55) was 441 ×100/μL, the HCT (Day-5) was 42% and the MCH (Day-5) was 22.3 pg. It also gave an MCHC (Day-5) of 30.3 g/dL, an MCV (Day-5) of 74 fL and an RBC count (Day-5) of 5.8e+06 µL⁻¹. It also gave a WBC count (Day-5) of 10000 µL⁻¹, a hemoglobin content (Day-5) of 12.8 g/dL and a monocytes (Day-5) of 2.0%. For the same substance, the neutrophils (Day-5) was 101%, the platelet count (Day-5) was 481 ×100/μL and the HCT (Day-14) was 41%. For the same substance, the MCH (Day-14) was 22.4 pg, the MCHC (Day-14) was 31.4 g/dL and the MCV (Day-14) was 72 fL. The RBC count (Day-14) was 5.8e+06 µL⁻¹, the WBC count (Day-14) was 11000 µL⁻¹ and the hemoglobin content (Day-14) was 12.8 g/dL. The monocytes (Day-14) was 4.0%, the neutrophils (Day-14) was 73% and the platelet count (Day-14) was 456 ×100/μL.

In the case of “ISIS 449710: 3-8-3, 4-8-4, 2-10-2, 3-10-3 or 4-10-4 MOE microwalk gapmer (Table 46) (antisense e[5mC]*eA*e[5mC]*dA*dG*dT*dT*dT*d[5mC]*dT*dG*dG*d[5mC]*eA*eG*eG)”, the HCT (Day 17) was 43%, the MCH (Day 17) was 23.1 pg and the MCHC (Day 17) was 30.7 g/dL. The MCV (Day 17) was 75 fL, the RBC count (Day 17) was 5.8e+06 µL⁻¹ and the WBC count (Day 17) was 12000 µL⁻¹. The hemoglobin content (Day 17) was 13.4 g/dL, the monocytes (Day 17) was 2.5% and the neutrophils (Day 17) was 80%. The platelet count (Day 17) was 382 ×100/μL, the HCT (Day 31) was 44% and the MCH (Day 31) was 22.6 pg. The MCHC (Day 31) was 30.1 g/dL, the MCV (Day 31) was 75 fL and the RBC count (Day 31) was 5.8e+06 µL⁻¹. The WBC count (Day 31) was 12000 µL⁻¹, the hemoglobin content (Day 31) was 13.1 g/dL and the monocytes (Day 31) was 2.4%. For the same substance, the neutrophils (Day 31) was 94%, the platelet count (Day 31) was 422 ×100/μL and the HCT (Day 45) was 43%. The MCH (Day 45) was 21.8 pg, the MCHC (Day 45) was 30.4 g/dL and the MCV (Day 45) was 75 fL. For the same substance, the RBC count (Day 45) was 5.7e+06 µL⁻¹, the WBC count (Day 45) was 11000 µL⁻¹ and the hemoglobin content (Day 45) was 13.0 g/dL. For the same substance, the monocytes (Day 45) was 3.4%, the neutrophils (Day 45) was 97% and the platelet count (Day 45) was 313 ×100/μL. It also gave an HCT (Day 55) of 41%, an MCH (Day 55) of 22.7 pg and an MCHC (Day 55) of 31.1 g/dL. For the same substance, the MCV (Day 55) was 73 fL, the RBC count (Day 55) was 5.6e+06 µL⁻¹ and the WBC count (Day 55) was 15000 µL⁻¹. For the same substance, the hemoglobin content (Day 55) was 12.7 g/dL, the monocytes (Day 55) was 1.6% and the neutrophils (Day 55) was 132%. For the same substance, the platelet count (Day 55) was 360 ×100/μL, the HCT (Day-5) was 44% and the MCH (Day-5) was 22.8 pg. It also gave an MCHC (Day-5) of 29.7 g/dL, an MCV (Day-5) of 77 fL and an RBC count (Day-5) of 5.8e+06 µL⁻¹. For the same substance, the WBC count (Day-5) was 11000 µL⁻¹, the hemoglobin content (Day-5) was 13.2 g/dL and the monocytes (Day-5) was 2.0%. The neutrophils (Day-5) was 86%, the platelet count (Day-5) was 463 ×100/μL and the HCT (Day-14) was 41%. It also gave an MCH (Day-14) of 23.0 pg, an MCHC (Day-14) of 31.2 g/dL and an MCV (Day-14) of 75 fL. The RBC count (Day-14) was 5.6e+06 µL⁻¹, the WBC count (Day-14) was 11000 µL⁻¹ and the hemoglobin content (Day-14) was 13.0 g/dL. The monocytes (Day-14) was 1.3%, the neutrophils (Day-14) was 93% and the platelet count (Day-14) was 411 ×100/μL.
